Experimental data: patent US6365053B1, “Removal of H2S in drilling mud” (Statoil Asa, priority 1998, dated 2002)

Legend:
[1] = H2S absorption by iron oxalate in oil based mud (interdrill 1.62), GGT analysis (Example 2); conditions: 400 mg iron oxalate in 15 ml interdrill 1.62 oil based mud, water phase pH 12.5, 1.5 ml solution D
Description: In A, B and C iron oxalate was added.
The jar containing the mixture was then shaken. From this mixture a new sample of 1 ml mud was taken out with a syringe. This new sample consisting of 1 ml mud was mixed with 20 ml of water and further analysed in GGT (Garret Gas Train) whereby the mixture was stirred with a magnetic stirrer.
The mud which was used in example 2 was of the type interdrill 1.62 (density of the mud), wherein the pH value in the water phase is 12.5.

[2] = H2S absorption by iron oxalate at low concentrations of H2S, GGT analysis (Example 3); conditions: low H2S concentration, 200 mg iron oxalate in 15 ml mud, 1.5 ml solution D
Description: Measurements at low concentrations of H2S were also carried out.
From this mixture a new sample of 1 ml mud was taken out with a syringe and mixed with 20 ml of water and analysed in GGT (Garret Gas Train) whereby the mixture was stirred with a magnetic stirrer.

O=C([O-])C(=O)[O-].[Fe+2] [iron oxalate, iron(II) oxalate]
Amount of remaining H2S in the mud sample measured by GGT analysis ([1]; ageing 17 hours): 51 ppm
Amount of remaining H2S in the mud sample measured by GGT analysis ([1]; ageing 40 hours): 34 ppm
Amount of remaining H2S in the mud sample measured by GGT analysis ([1]; ageing 64 hours): 57 ppm
Amount of remaining H2S in the mud sample measured by GGT analysis ([2]; ageing 1 hour): 8.5 ppm
Amount of remaining H2S in the mud sample measured by GGT analysis ([2]; ageing 18 hours): 0 ppm
Amount of remaining H2S in the mud sample measured by GGT analysis ([2]; ageing 25 hours): 0 ppm
